Measured values: the kinase profiling compilation of Christmann-Franck et al. (2016)
“And” between values parts separate entries of the source, which are not always exact repeats. Equal entries are not always repeated. Each block holds one molecule with its values, some of them ahead of it.

Assays:
Assay in all cases: Caliper, Mobility shift assay off-chip
ALK (human) = ALK (human) (UniProt Q9UM73)
CSK (human) = CSK (human) (UniProt P41240)
AKT1 (human) = AKT1 (human) (UniProt P31749)
SRC (human) = SRC (human) (UniProt P12931)
RPS6KA1 KD1 KD2 (human) = RPS6KA1 KD1 KD2 (human) (UniProt Q15418)
NEK2 (human) = NEK2 (human) (UniProt P51955)
BRSK2 (human) = BRSK2 (human) (UniProt Q8IWQ3)
PIM2 (human) = PIM2 (human) (UniProt Q9P1W9)
MAPKAPK2 (human) = MAPKAPK2 (human) (UniProt P49137)
MAPK8 (human) = MAPK8 (human) (UniProt P45983)
KDR (human) = KDR (human) (UniProt P35968)
FLT3 (human) = FLT3 (human) (UniProt P36888)
PAK4 (human) = PAK4 (human) (UniProt O96013)
PRKCI (human) = PRKCI (human) (UniProt P41743)
TEK (human) = TEK (human) (UniProt Q02763)
RPS6KB1 (human) = RPS6KB1 (human) (UniProt P23443)
EGFR (human) = EGFR (human) (UniProt P00533)
RPS6KA5 KD1 KD2 (human) = RPS6KA5 KD1 KD2 (human) (UniProt O75582)
PLK3 (human) = PLK3 (human) (UniProt Q9H4B4)
CHEK1 (human) = CHEK1 (human) (UniProt O14757)
MAPK13 (human) = MAPK13 (human) (UniProt O15264)
MAP3K7 (human) = MAP3K7 (human) (UniProt O43318)
PRKCG (human) = PRKCG (human) (UniProt P05129)
PRKCA (human) = PRKCA (human) (UniProt P17252)
PIM1 (human) = PIM1 (human) (UniProt P11309)
IKBKB (human) = IKBKB (human) (UniProt O14920)
IGF1R (human) = IGF1R (human) (UniProt P08069)
ZAP70 (human) = ZAP70 (human) (UniProt P43403)
FGFR3 (human) = FGFR3 (human) (UniProt P22607)
EPHA2 (human) = EPHA2 (human) (UniProt P29317)
BTK (human) = BTK (human) (UniProt Q06187)
ROCK1 (human) = ROCK1 (human) (UniProt Q13464)
FGFR1 (human) = FGFR1 (human) (UniProt P11362)
CDK2 CCNA2 (human) = CDK2 CCNA2 (human) (UniProt P24941+P20248)
MAPK12 (human) = MAPK12 (human) (UniProt P53778)
MAPKAPK5 (human) = MAPKAPK5 (human) (UniProt Q8IW41)
MAPK11 (human) = MAPK11 (human) (UniProt Q15759)
KIT (human) = KIT (human) (UniProt P10721)
RIPK2 (human) = RIPK2 (human) (UniProt O43353)
EPHA4 (human) = EPHA4 (human) (UniProt P54764)
NEK6 (human) = NEK6 (human) (UniProt Q9HC98)

Sequence of SRC (human) (P12931 whole entry, looked up): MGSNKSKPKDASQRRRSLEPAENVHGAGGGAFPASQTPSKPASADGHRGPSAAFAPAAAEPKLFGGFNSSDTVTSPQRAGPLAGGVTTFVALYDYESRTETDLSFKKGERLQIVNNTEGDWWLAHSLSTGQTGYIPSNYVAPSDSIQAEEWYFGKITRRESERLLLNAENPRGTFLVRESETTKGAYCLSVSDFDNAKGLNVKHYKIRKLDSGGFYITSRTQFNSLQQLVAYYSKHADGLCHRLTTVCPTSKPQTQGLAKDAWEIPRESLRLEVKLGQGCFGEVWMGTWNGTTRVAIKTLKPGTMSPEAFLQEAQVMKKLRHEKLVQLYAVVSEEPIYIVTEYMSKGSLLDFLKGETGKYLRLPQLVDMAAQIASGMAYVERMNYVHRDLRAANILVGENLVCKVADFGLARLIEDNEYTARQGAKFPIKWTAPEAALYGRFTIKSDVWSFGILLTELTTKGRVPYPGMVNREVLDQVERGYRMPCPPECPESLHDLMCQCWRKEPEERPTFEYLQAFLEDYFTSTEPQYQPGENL
Sequence of BRSK2 (human) (Q8IWQ3 whole entry, looked up): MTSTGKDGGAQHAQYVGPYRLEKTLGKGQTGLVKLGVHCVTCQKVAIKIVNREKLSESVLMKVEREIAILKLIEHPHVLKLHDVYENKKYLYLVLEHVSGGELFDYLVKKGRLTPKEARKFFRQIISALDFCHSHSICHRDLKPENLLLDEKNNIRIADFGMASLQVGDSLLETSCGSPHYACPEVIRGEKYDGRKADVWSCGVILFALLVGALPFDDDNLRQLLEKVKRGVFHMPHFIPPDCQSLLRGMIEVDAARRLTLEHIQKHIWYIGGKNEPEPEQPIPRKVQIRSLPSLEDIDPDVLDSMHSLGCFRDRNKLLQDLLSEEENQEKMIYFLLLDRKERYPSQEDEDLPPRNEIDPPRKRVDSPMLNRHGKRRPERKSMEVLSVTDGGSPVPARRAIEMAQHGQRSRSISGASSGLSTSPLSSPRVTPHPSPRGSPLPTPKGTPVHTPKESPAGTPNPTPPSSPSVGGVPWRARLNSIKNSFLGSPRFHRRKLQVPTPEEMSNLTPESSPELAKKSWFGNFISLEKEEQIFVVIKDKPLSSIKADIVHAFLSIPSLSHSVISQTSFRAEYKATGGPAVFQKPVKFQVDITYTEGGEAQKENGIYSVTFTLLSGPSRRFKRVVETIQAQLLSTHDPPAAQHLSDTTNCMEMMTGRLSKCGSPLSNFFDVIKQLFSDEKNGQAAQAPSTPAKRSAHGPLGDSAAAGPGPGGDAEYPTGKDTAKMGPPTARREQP
Sequence of ZAP70 (human) (P43403 whole entry, looked up): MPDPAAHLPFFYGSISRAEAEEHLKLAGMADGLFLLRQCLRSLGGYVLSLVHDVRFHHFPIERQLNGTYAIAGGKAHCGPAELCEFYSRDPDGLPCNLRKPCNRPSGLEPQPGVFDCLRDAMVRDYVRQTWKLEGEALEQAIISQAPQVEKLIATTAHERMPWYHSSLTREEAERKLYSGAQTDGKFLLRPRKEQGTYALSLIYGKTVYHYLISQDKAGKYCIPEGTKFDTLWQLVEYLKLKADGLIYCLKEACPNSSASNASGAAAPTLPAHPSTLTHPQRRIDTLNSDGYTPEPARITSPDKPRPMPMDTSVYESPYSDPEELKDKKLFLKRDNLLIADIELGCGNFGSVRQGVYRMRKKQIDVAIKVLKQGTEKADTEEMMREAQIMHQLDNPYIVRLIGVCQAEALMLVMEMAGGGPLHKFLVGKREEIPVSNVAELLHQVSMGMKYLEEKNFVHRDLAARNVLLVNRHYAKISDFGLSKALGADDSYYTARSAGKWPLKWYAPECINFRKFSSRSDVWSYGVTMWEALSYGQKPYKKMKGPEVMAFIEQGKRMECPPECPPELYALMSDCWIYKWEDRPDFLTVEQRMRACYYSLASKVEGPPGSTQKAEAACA
Sequence of PIM2 (human) (Q9P1W9 whole entry, looked up): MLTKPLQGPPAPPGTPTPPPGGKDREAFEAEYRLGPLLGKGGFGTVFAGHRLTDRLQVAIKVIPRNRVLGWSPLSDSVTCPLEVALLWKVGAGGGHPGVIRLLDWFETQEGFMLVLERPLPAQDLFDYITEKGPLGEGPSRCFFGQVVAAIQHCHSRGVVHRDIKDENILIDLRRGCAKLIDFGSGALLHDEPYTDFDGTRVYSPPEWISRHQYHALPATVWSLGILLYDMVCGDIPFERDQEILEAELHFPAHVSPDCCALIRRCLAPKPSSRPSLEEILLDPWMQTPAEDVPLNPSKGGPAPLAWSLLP
Sequence of EGFR (human) (P00533 whole entry, looked up): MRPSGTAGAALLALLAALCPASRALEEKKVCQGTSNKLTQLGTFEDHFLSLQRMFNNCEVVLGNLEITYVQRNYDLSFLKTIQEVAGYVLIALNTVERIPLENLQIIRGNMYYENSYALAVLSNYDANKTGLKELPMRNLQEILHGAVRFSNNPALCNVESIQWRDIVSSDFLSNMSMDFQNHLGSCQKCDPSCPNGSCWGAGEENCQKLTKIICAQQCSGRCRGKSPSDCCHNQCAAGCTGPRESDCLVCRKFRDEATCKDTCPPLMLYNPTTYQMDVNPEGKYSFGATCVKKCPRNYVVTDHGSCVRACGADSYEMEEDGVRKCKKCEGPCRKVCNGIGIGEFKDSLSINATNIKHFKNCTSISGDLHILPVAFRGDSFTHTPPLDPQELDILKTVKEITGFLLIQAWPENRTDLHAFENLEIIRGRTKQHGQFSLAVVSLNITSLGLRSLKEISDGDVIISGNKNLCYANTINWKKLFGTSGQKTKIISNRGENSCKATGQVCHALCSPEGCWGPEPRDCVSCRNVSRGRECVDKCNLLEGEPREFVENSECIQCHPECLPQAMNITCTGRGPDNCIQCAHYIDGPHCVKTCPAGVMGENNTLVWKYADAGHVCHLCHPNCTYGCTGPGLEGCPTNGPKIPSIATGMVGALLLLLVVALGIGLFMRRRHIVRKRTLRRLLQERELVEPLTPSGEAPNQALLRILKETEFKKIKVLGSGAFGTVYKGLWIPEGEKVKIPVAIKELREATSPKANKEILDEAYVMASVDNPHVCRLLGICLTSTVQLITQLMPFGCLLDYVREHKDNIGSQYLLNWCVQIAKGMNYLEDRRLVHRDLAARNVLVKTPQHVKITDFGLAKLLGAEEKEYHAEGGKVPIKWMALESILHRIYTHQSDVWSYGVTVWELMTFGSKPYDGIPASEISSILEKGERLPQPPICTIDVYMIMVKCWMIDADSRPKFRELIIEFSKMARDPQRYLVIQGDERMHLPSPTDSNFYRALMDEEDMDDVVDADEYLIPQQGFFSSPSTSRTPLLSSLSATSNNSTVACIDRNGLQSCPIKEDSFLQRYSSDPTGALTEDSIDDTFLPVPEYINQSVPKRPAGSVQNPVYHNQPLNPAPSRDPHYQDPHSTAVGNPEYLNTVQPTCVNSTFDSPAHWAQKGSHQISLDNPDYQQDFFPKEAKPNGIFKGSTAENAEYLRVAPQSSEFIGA
Sequence of IKBKB (human) (O14920 whole entry, looked up): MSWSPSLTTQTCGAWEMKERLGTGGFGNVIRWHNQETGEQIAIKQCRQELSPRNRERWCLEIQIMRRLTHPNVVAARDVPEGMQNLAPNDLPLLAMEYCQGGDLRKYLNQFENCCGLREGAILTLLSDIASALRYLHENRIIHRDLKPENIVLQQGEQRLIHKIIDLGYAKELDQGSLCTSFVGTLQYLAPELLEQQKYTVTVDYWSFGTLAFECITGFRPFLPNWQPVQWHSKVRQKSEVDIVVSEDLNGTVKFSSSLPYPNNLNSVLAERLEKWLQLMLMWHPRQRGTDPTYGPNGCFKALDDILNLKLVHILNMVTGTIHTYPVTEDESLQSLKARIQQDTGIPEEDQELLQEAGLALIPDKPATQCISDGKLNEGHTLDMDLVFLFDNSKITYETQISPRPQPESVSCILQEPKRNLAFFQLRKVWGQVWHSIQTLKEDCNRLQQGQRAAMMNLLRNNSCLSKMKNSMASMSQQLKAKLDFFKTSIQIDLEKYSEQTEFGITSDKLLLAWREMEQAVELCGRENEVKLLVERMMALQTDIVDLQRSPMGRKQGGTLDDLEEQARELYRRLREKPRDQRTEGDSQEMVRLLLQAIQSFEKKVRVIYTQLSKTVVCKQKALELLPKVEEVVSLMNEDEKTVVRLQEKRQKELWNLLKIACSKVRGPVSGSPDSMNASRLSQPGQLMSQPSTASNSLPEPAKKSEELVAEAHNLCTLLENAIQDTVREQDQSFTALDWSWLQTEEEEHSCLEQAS

residual activity (ALK (human); compound 1.0 µM): 116%
residual activity (CSK (human); compound 1.0 µM): 110%
residual activity (AKT1 (human); compound 1.0 µM): 102%
residual activity (SRC (human); compound 1.0 µM): 104%
residual activity (RPS6KA1 KD1 KD2 (human); compound 1.0 µM): 2%
residual activity (NEK2 (human); compound 1.0 µM): 118%
residual activity (BRSK2 (human); compound 1.0 µM): 18%
residual activity (PIM2 (human); compound 1.0 µM): 92%
residual activity (MAPKAPK2 (human); compound 1.0 µM): 88%
residual activity (MAPK8 (human); compound 1.0 µM): 106%
residual activity (KDR (human); compound 1.0 µM): 95%
residual activity (FLT3 (human); compound 1.0 µM): 25%
residual activity (PAK4 (human); compound 1.0 µM): 69%
residual activity (PRKCI (human); compound 1.0 µM): 114%
residual activity (TEK (human); compound 1.0 µM): 106%
residual activity (RPS6KB1 (human); compound 1.0 µM): 76%
residual activity (EGFR (human); compound 1.0 µM): 110%
residual activity (RPS6KA5 KD1 KD2 (human); compound 1.0 µM): 68%
residual activity (PLK3 (human); compound 1.0 µM): 95%
residual activity (CHEK1 (human); compound 1.0 µM): 5%
residual activity (MAPK13 (human); compound 1.0 µM): 97%
residual activity (MAP3K7 (human); compound 1.0 µM): 56%
residual activity (PRKCG (human); compound 1.0 µM): 75%
residual activity (PRKCA (human); compound 1.0 µM): 107%
residual activity (PIM1 (human); compound 1.0 µM): 97%
residual activity (IKBKB (human); compound 1.0 µM): 104%
residual activity (IGF1R (human); compound 1.0 µM): 145%
residual activity (ZAP70 (human); compound 1.0 µM): 114%
residual activity (FGFR3 (human); compound 1.0 µM): 102%
residual activity (EPHA2 (human); compound 1.0 µM): 107%
residual activity (BTK (human); compound 1.0 µM): 95%
residual activity (ROCK1 (human); compound 1.0 µM): 66%
residual activity (FGFR1 (human); compound 1.0 µM): 43%
residual activity (CDK2 CCNA2 (human); compound 1.0 µM): 104%
residual activity (MAPK12 (human); compound 1.0 µM): 107%
residual activity (MAPKAPK5 (human); compound 1.0 µM): 80%
residual activity (MAPK11 (human); compound 1.0 µM): 99%
residual activity (KIT (human); compound 1.0 µM): 112%
residual activity (RIPK2 (human); compound 1.0 µM): 93%
residual activity (EPHA4 (human); compound 1.0 µM): 104%
residual activity (NEK6 (human); compound 1.0 µM): 101%
Structure (SMILES): Cc1n[nH]c2c1c(=O)n(CCCN)c1ccc(Cl)cc21

Structure (SMILES): O=C(N[C@@H](COc1ccc2[nH]c(=O)[nH]c2c1)c1ccccc1)c1cccn(Cc2ccc(F)c(F)c2)c1=O
residual activity (ALK (human); compound 10.0 µM): 116%
residual activity (CSK (human); compound 10.0 µM): 114%
residual activity (AKT1 (human); compound 10.0 µM): 107%
residual activity (SRC (human); compound 10.0 µM): 94% and 101%
residual activity (RPS6KA1 KD1 KD2 (human); compound 10.0 µM): 107%
residual activity (NEK2 (human); compound 10.0 µM): 94%
residual activity (BRSK2 (human); compound 10.0 µM): 111%
residual activity (PIM2 (human); compound 10.0 µM): 100%
residual activity (MAPKAPK2 (human); compound 10.0 µM): 98%
residual activity (MAPK8 (human); compound 10.0 µM): 125%
residual activity (KDR (human); compound 10.0 µM): 101%
residual activity (FLT3 (human); compound 10.0 µM): 103%
residual activity (PAK4 (human); compound 10.0 µM): 105%
residual activity (PRKCI (human); compound 10.0 µM): 97%
residual activity (TEK (human); compound 10.0 µM): 105%
residual activity (RPS6KB1 (human); compound 10.0 µM): 104%
residual activity (EGFR (human); compound 10.0 µM): 89%
residual activity (RPS6KA5 KD1 KD2 (human); compound 10.0 µM): 109%
residual activity (PLK3 (human); compound 10.0 µM): 96%
residual activity (CHEK1 (human); compound 10.0 µM): 105%
residual activity (MAPK13 (human); compound 10.0 µM): 114%
residual activity (MAP3K7 (human); compound 10.0 µM): 101%
residual activity (PRKCG (human); compound 10.0 µM): 104%
residual activity (PRKCA (human); compound 10.0 µM): 98%
residual activity (PIM1 (human); compound 10.0 µM): 104%
residual activity (IKBKB (human); compound 10.0 µM): 100%
residual activity (IGF1R (human); compound 10.0 µM): 116%
residual activity (ZAP70 (human); compound 10.0 µM): 100%
residual activity (FGFR3 (human); compound 10.0 µM): 122%
residual activity (EPHA2 (human); compound 10.0 µM): 127%
residual activity (BTK (human); compound 10.0 µM): 107%
residual activity (ROCK1 (human); compound 10.0 µM): 97%
residual activity (FGFR1 (human); compound 10.0 µM): 86%
residual activity (CDK2 CCNA2 (human); compound 10.0 µM): 99%
residual activity (MAPK12 (human); compound 10.0 µM): 115%
residual activity (MAPKAPK5 (human); compound 10.0 µM): 98%
residual activity (MAPK11 (human); compound 10.0 µM): 100%
residual activity (KIT (human); compound 10.0 µM): 107%
residual activity (RIPK2 (human); compound 10.0 µM): 101%
residual activity (EPHA4 (human); compound 10.0 µM): 101%
residual activity (NEK6 (human); compound 10.0 µM): 99%
